Experimental data published in patent publication US11413273B2, “Prophylactic or therapeutic agent for pulmonary hypertension comprising unsaturated 5-membered heterocycle-containing compound” (TOHOKU UNIVERSITY, priority 2016, dated 2022).

Columns and labels:
[1] = tested on: pulmonary artery smooth muscle cells derived from patients with idiopathic pulmonary arterial hypertension (IPAH-PASMCs); experiment: ability to suppress the proliferation of pulmonary artery smooth muscle cells from patients with pulmonary hypertension (MTT assay); assay type: cell-based, human; conditions: for day 2/day 0 cell number ratio (MTT cell viability): 48 hours, IPAH-PASMC line 1, 10% FBS control 1.40; for suppressive effect on the proliferation of pulmonary artery smooth muscle cells: same method as Example 1, data not shown
Procedure: The following compounds were used to assess the abilities of these compounds to suppress the proliferation of pulmonary artery smooth muscle cells from patients with pulmonary hypertension (IPAH-PASMC line: 1)
Those compounds were obtained by synthesis in the Faculty of Pharmaceutical Sciences, Tohoku University. Specifically, first, 66 μl each of pulmonary artery smooth muscle cells derived from patients with idiopathic pulmonary arterial hypertension (IPAH-PASMCs) suspended in a 10% FBS medium (DMEM supplemented with 10% FBS) were seeded in a 96-well plate at 50,000 cells/ml (day −1). 24 Hours after the cell seeding (the time point was defined as day 0), 33 μl each of 300 nM, 3 μM, and 15 μM solutions of CEL-1 to CEL-8, CEL-10, CEL-13 to CEL-15, and CEL-19 in 10% FBS containing 1% DMSO were added to the wells so that the final concentrations were 100 nM, 1 μM, and 5 μM, respectively. As a control, 33 μl of 10% FBS containing 1% DMSO was added in place of CEL-1 to CEL-8, CEL-10, CEL-13 to CEL-15, and CEL-19. On day 0 (immediately before the addition of each of CEL-1 to CEL-8, CEL-10, CEL-13 to CEL-15, and CEL-19), a cell viability was confirmed by performing CellTiter 96 (trademark) AQueous One Solution Cell Proliferation Assay, promega MTT assay. Further, 48 hours after the addition of each of CEL-1 to CEL-8, CEL-10, CEL-13 to CEL-15, and CEL-19 (day 2), the MTT assay was performed again to observe a change in cell viability. Thus, a cell proliferation-suppressing effect was assessed.
In addition, in the case where R^2 in the general formula (I) represents an alkyl group, in order to explore an association between the length of the alkyl group and a pulmonary artery smooth muscle cell proliferation-suppressing effect, a test on an ability to suppress the proliferation of the pulmonary artery smooth muscle cells from patients with pulmonary hypertension (IPAH-PASMC line:1) was performed three times, and the lengths of alkyl groups of the respective compounds and the results of stimulation with the compounds at a concentration of 5 μM for 48 hours (averages of day 2/day 0 cell number ratios) were shown graphically. A Pearson's correlation test was performed on the lengths of the alkyl groups and the day 2/day 0 cell number ratios. As a result, a significant correlation was found with a P-value of 0.0298.

[2] = molecular target: zinc finger protein ZFC3H1 (Homo sapiens, UniProt O60293); conditions: Non-patent Literature 2; cited from earlier work
Sequence of zinc finger protein ZFC3H1 (O60293 whole entry): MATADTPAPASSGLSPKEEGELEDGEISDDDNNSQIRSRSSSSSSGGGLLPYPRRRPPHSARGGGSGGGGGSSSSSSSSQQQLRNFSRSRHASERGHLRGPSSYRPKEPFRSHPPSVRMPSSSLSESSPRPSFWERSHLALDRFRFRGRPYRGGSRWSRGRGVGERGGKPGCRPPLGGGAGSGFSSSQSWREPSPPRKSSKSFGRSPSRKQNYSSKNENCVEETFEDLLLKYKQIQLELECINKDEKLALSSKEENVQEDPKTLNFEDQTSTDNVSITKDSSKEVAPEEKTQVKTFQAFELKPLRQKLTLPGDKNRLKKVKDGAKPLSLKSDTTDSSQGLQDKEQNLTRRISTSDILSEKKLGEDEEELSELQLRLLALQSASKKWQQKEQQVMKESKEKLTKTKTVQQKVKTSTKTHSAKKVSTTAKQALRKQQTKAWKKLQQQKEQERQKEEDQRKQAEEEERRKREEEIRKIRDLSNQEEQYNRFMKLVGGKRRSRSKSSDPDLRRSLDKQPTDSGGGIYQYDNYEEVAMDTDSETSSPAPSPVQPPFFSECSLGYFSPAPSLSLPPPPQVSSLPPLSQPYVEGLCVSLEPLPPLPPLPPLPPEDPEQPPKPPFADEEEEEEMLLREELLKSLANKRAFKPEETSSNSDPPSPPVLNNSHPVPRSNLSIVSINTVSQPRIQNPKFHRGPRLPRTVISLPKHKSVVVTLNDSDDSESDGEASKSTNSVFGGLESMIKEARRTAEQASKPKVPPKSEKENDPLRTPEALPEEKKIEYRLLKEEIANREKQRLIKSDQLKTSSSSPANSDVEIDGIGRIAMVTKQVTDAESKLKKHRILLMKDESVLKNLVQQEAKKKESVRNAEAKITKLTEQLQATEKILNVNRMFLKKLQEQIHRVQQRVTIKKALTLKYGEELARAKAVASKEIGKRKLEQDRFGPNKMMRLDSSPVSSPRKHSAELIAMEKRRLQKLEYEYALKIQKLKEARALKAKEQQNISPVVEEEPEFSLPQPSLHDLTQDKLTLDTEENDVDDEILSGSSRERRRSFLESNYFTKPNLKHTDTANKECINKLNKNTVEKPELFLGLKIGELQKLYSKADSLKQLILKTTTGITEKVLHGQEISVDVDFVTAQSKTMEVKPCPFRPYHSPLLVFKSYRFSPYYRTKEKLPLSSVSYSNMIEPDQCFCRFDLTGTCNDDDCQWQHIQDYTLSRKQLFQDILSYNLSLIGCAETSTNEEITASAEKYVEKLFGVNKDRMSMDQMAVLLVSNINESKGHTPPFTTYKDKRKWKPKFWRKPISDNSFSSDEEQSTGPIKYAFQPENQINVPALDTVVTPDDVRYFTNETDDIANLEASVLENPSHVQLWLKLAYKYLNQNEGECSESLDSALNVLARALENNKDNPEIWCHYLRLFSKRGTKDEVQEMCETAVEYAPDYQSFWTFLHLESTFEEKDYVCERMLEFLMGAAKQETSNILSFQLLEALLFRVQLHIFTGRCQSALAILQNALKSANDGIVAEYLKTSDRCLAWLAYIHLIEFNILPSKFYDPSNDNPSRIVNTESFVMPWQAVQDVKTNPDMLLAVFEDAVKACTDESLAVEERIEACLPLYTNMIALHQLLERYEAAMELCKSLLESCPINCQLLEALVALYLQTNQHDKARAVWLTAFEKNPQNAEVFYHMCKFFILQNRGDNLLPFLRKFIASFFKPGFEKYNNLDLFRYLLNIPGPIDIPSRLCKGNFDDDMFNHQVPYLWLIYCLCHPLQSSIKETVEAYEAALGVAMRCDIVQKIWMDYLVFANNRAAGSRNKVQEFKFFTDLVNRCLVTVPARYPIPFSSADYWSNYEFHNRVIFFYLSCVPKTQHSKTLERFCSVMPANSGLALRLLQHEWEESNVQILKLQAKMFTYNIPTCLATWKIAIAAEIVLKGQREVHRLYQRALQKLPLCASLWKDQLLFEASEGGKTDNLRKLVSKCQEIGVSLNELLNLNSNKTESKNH

[3] = tested on: transcription factor NF-κB; conditions: Non-patent Literature 2 and 3; cited from earlier work
[4] = tested on: SU5416/hypoxia-induced pulmonary hypertension rat model; experiment: SU5416/hypoxia-induced pulmonary hypertension rat model; assay type: in vivo, Sprague-Dawley rats; conditions: 3 mg/kg intraperitoneally daily for 2 weeks
Procedure: The pulmonary hypertension rat model was generated by: subcutaneously injecting 6-week-old male Sprague-Dawley rats ([…]) with SU5416 at 20 mg/kg; and then breeding the rats in a hypoxic chamber having an oxygen concentration of from 8% to 12% for 3 weeks followed by breeding the rats under normoxia for 2 weeks. After the hypoxic stimulation for 3 weeks, the rats were intraperitoneally injected with CEL-3 dissolved with 10% DMSO at 3 mg/kg daily for 2 weeks. The Vehicle group was intraperitoneally injected with a DMSO solution at the same concentration. The rats were treated with CEL-3 for 2 weeks and then sacrificed to measure a right ventricular systolic pressure (RVSP) with a pressure catheter 1.6F (Transonic Scisense, US). In addition, after formalin fixation, the right ventricle and the left ventricle were separated to measure a right ventricle/(left ventricle plus septum) weight ratio (RV/[LV+S]). Then, the extent of pulmonary hypertension was assessed on the basis of those results. The body weights of the Control group, the Vehicle group, and the CEL-3 administration group before the test were 160.8±1.7 g, 163.4±2.5 g, and 158.9±1.9 g, respectively. In addition, the body weights of the Control group, the Vehicle group, and the CEL-3 administration group after the test were 355.4±5.1 g, 264.91±9.3 g, and 260.0±11.1 g, respectively.

[5] = tested on: hypoxia-induced pulmonary hypertension mouse model; experiment: hypoxia-induced pulmonary hypertension mouse model; assay type: in vivo, C57BL/6 mice; conditions: 10 mg/kg/day continuous subcutaneous infusion
Procedure: Next, the therapeutic effect of CEL-3 on pulmonary hypertension was assessed in vivo. Specifically, the influence of CEL-3 on a hypoxia-induced pulmonary hypertension mouse model was investigated. The pulmonary hypertension mouse model was generated by breeding 9-week-old male C57BL/6 mice (n=14) in a hypoxic chamber having an oxygen concentration of from 8% to 12%. Before being housed in the hypoxic chamber, the mice were implanted with an osmotic pump containing CEL-3 dissolved with 50% DMSO, and were administered CEL-3 at 10 mg/kg/day by continuous subcutaneous infusion. The Vehicle group was administered a DMSO solution at the same concentration with an osmotic pump. The mice were bred in the hypoxic chamber for 3 weeks and then sacrificed to measure a right ventricular systolic pressure (RVSP) with a pressure catheter 1.2F (Transonic Scisense, US). In addition, after formalin fixation, the right ventricle and the left ventricle were separated to measure a right ventricle/(left ventricle plus septum) weight ratio RV/[LV+S]). Then, the extent of pulmonary hypertension was assessed on the basis of those results. The body weights of the Vehicle group and the CEL-3 administration group before the test were each 25.6±0.3 g. In addition, the body weights of the Vehicle group and the CEL-3 administration group after the test were 24.2±0.8 g and 23.9±0.7 g, respectively.

[6] = tested on: pulmonary artery smooth muscle cells; conditions: previous report, Non-patent Literature 3; cited from earlier work
[7] = final concentration 100 nm (so in the source)
[8] = 3 weeks hypoxia, vs control group (FIG. 3)

SMILES	day 2/day 0 cell number ratio (MTT cell viability) ([1]; final concentration 1 μM)	day 2/day 0 cell number ratio (MTT cell viability) ([1]; final concentration 5 μM)	day 2/day 0 cell number ratio (MTT cell viability) [1, 7]	other results
CCCCCCc1cc(Br)c(O)c(C(=O)c2cc(Cl)c(Cl)[nH]2)c1O [CEL-15]	0.78	0.54	1.26	–
CCCCCCc1cc(Cl)c(O)c(C(=O)c2cc(Br)c(Br)[nH]2)c1O [CEL-13]	0.72	0.51	1.20	–
CCCCCCCc1cc(Cl)c(O)c(C(=O)c2cc(Cl)c(Cl)[nH]2)c1O [CEL-6]	0.77	0.54	1.23	–
O=C(/C=C/c1ccc(O)c(O)c1)OCCc1ccccc1 [caffeic acid phenethyl ester, reference compound]	–	–	–	suppressive effect on the proliferation of pulmonary artery smooth muscle cells ([1]; final concentration 5 μM): not sufficiently suppressed
CCCCCCc1cc(Cl)c(O)c(C(=O)c2cc(Cl)c(Cl)[nH]2)c1O [CEL-1, celastramycin]	0.83	0.52	1.46	binding to ZFC3H1 [2]: binds to a zinc finger protein ZFC3H1; NF-κB-inhibiting action [3]: inhibit signal transduction in which a transcription factor NF-κB is involved
CCCCCCCCCCCCc1cc(Cl)c(O)c(C(=O)c2cc(Cl)c(Cl)[nH]2)c1O [CEL-8]	0.74	0.47	1.13	–
O=C(c1cc(Cl)c(Cl)[nH]1)c1c(O)ccc(Cl)c1O [CEL-2]	1.36	0.87	1.37	–
CCCc1cc(Cl)c(O)c(C(=O)c2ccc(Br)[nH]2)c1O [CEL-14]	1.35	0.88	1.37	–
CCCCCCc1cc(C)c(O)c(C(=O)c2cc(Cl)c(Cl)[nH]2)c1O [CEL-10]	0.68	0.48	1.16	–
CCCCCc1cc(Cl)c(O)c(C(=O)c2cc(Cl)c(Cl)[nH]2)c1O [CEL-5]	0.79	0.53	1.25	–
Cc1cc(Cl)c(O)c(C(=O)c2cc(Cl)c(Cl)[nH]2)c1O [CEL-3]	0.99	0.81	1.25	increase in right ventricle/(left ventricle plus septum) weight ratio (RV/[LV+S]) ([4]; vs control group (FIG. 4)): suppressed; increase in right ventricular systolic pressure (RVSP) ([4]; vs control group (FIG. 4)): suppressed; body weight after the test ([4]; Vehicle group 264.91±9.3 g): 260.0 ± 11.1 g; increase in right ventricle/(left ventricle plus septum) weight ratio (RV/[LV+S]) [5, 8]: suppressed; increase in right ventricular systolic pressure (RVSP) [5, 8]: suppressed; body weight after the test ([5]; 3 weeks, Vehicle group 24.2±0.8 g): 23.9 ± 0.7 g
Cc1ccc(S(=O)(=O)N[C@@H](Cc2ccccc2)C(=O)CCl)cc1 [N-p-tosyl-L-phenylalanine chloromethyl ketone, reference compound]	–	–	–	suppressive effect on the proliferation of pulmonary artery smooth muscle cells ([1]; final concentration 5 μM): not sufficiently suppressed
CCCCCCc1cc(Cl)c(O)c(C(=O)c2c[nH]c(Cl)c2Cl)c1O [CEL-19]	1.24	0.94	1.31	–
CCCCCCCCc1cc(Cl)c(O)c(C(=O)c2cc(Cl)c(Cl)[nH]2)c1O [CEL-7]	0.84	0.52	1.27	–
Cc1ccc(S(=O)(=O)N[C@@H](CCCCN)C(=O)CCl)cc1.Cl [Nα-p-tosyl-L-lysine chloromethyl ketone hydrochloride, reference compound]	–	–	–	suppressive effect on the proliferation of pulmonary artery smooth muscle cells ([1]; final concentration 5 μM): not sufficiently suppressed
CCCCc1cc(Cl)c(O)c(C(=O)c2cc(Cl)c(Cl)[nH]2)c1O [CEL-4]	0.79	0.53	1.24	–
O=C(Nc1cc(C(F)(F)F)cc(C(F)(F)F)c1)c1cc(Cl)ccc1O [IMD-0354, N-[3,5-bis(trifluoromethyl)phenyl]-5-chloro-2-hydroxybenzamide, reference compound]	–	–	–	NF-κB-inhibiting action [3]: has an NF-κB-inhibiting action; suppression of proliferation of pulmonary artery smooth muscle cells [6]: suppresses the proliferation of pulmonary artery smooth muscle cells
